The values that follow come from US10774102B2, “Galactoside inhibitor of galectins” (Galecto Biotech AB, priority 2015, dated 2020).

Sequence of galectin-3 (P17931 whole entry): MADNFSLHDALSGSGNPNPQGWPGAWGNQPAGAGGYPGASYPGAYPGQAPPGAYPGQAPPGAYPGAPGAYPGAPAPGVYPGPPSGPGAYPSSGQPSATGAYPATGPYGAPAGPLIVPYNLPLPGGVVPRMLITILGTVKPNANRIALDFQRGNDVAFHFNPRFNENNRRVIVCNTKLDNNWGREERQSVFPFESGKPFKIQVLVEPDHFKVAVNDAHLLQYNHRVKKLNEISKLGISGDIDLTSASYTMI

In this assay the target is galectin-3 (Homo sapiens (Human), UniProt P17931). Put plainly: Fluorescence anisotropy assay of galectin-3 affinity (compound inhibits galectin binding to a fluorescein tagged saccharide probe). To be noted: high affinity probe, 50 nM galectin-3, 100 nM albumin. The protocol:
100 nM albumin was included as a carrier to prevent protein loss at such low concentration of galectin.
In general terms: In fluorescence polarisation assays a small probe gives low polarisation when free and higher when bound to something large.
`OC[C@H]1O[C@H](Oc2ccc(Cl)cc2)[C@H](O)[C@@H](n2cc(-c3cc(F)c(F)c(F)c3)nn2)[C@H]1O` [Example 34, 4-Chlorophenyl 3-deoxy-3-[4-(3,4,5-trifluorophenyl)-1H-1,2,3-triazol-1-yl]-α-D-galactopyranoside] gave a Kd of 570 nM.
For `O=S(=O)(c1ccc(Cl)c(Cl)c1)[C@H]1O[C@H](CO)[C@H](O)[C@H](n2cc(-c3c(F)c(F)c(F)c(F)c3F)nn2)[C@H]1O` [Example 53, 3,4-Dichlorophenyl 3-deoxy-3-[4-(2,3,4,5,6-pentafluorophenyl)-1H-1,2,3-triazol-1-yl]-α-D-galactopyranosyl sulfone] the value was 13 nM.
For `CCOc1cccc(S[C@H]2O[C@H](CO)[C@H](O)[C@H](n3cc(-c4cc(F)c(F)c(F)c4)nn3)[C@H]2O)c1` [Example 3, 3-Ethoxyphenyl 3-deoxy-3-[4-(3,4,5-trifluorophenyl)-1H-1,2,3-triazol-1-yl]-1-thio-α-D-galactopyranoside] the value was 420 nM.
For `[O-][S+](c1cccc(Br)c1)[C@H]1O[C@H](CO)[C@H](O)[C@H](n2cc(-c3cc(F)c(F)c(F)c3)nn2)[C@H]1O` (stereo partly drawn) [Example 39, 3-Bromophenyl 3-deoxy-3-[4-(3,4,5-trifluorophenyl)-1H-1,2,3-triazol-1-yl]-α-D-galactopyranosyl sulfoxide] the value was 23 nM; for `COc1ccc(S[C@H]2OC(CO)[C@H](O)[C@H](n3cc(-c4cc(F)c(F)c(F)c4)nn3)C2O)cc1` (stereo partly drawn) [Example 7, 4-Methoxyphenyl 3-deoxy-3-[4-(3,4,5-trifluorophenyl)-1H-1,2,3-triazol-1-yl]-1-thio α-D-galactopyranoside], 410 nM; for `OC[C@H]1O[C@H](Sc2ccc(Cl)cc2)[C@H](O)[C@@H](n2cc(-c3cc(F)c(F)c(F)c3)nn2)[C@H]1O` [Example 23, 4-Chlorophenyl 3-deoxy-3-[4-(3,4,5-trifluorophenyl)-1H-1,2,3-triazol-1-yl]-1-thio-α-D-galactopyranoside], 200 nM.
`OC[C@H]1O[C@H](Oc2ccc(Cl)c(Cl)c2)[C@H](O)[C@@H](n2cc(-c3cc(F)c(F)c(F)c3)nn2)[C@H]1O` [Example 22, 3,4-Dichlorophenyl 3-deoxy-3-[4-(3,4,5-trifluorophenyl)-1H-1,2,3-triazol-1-yl]-α-D-galactopyranoside] displayed a Kd of 490 nM.
As for `OC[C@H]1O[C@H](Sc2cccc(OC(F)(F)F)c2)[C@H](O)[C@@H](n2cc(-c3cc(F)c(F)c(F)c3)nn2)[C@H]1O` [Example 20, 3-(Trifluoromethoxy)phenyl 3-deoxy-3-[4-(3,4,5-trifluorophenyl)-1H-1,2,3-triazol-1-yl]-1-thio-α-D-galactopyranoside], the figure is 500 nM; as for `OC[C@H]1O[C@H](Oc2cccc(Cl)c2)[C@H](O)[C@@H](n2cc(-c3cc(F)c(F)c(F)c3)nn2)[C@H]1O` [Example 33, 3-Chlorophenyl 3-deoxy-3-[4-(3,4,5-trifluorophenyl)-1H-1,2,3-triazol-1-yl]-α-D-galactopyranoside], 250 nM; as for `OC[C@H]1O[C@H](Sc2ccncc2)[C@H](O)[C@@H](n2cc(-c3cc(F)c(F)c(F)c3)nn2)[C@H]1O` [Example 4, 4-Pyridyl 3-deoxy-3-[4-(3,4,5-trifluorophenyl)-1H-1,2,3-triazol-1-yl]-1-thio-α-D-galactopyranoside], 190 nM.
For `[O-][S+](c1cncc(Cl)c1)[C@H]1OC(CO)[C@H](O)[C@H](n2cc(-c3cc(F)c(F)c(F)c3)nn2)C1O` (single isomer, unassigned; isomer 1) [Example 93, 5-Chloropyridin-3-yl 3-deoxy-3-[4-(3,4,5-trifluorophenyl)-1H-1,2,3-triazol-1-yl]-α-D-galactopyranosyl sulfoxide, isomer 1] the value was 106 nM.

As a reminder, the Kd is the free concentration of one partner at which half of the binding sites on the other are occupied at equilibrium, for simple one-to-one binding. A higher Kd goes with lower affinity.
